Entries after “also recorded” stand apart in the source; their conditions may differ.

The subject of data set [1] is KSHV-infected DMVEC. The note with it: cited from earlier work.
The subject of data set [2] is KSHV-infected DMVEC. As to conditions: cited from earlier work. This is another data set of the same source.
In data set [3] the test system is KSHV-infected DMVEC. The data set can be described thus: Inhibition of KSHV-induced spindle cell formation by PMO antisense gene silencing. Type of data set: cell-based, human. As to conditions: for effect on KSHV-induced spindle cell formation / phenotypic inhibition (in words): PMO antisense silencing; for Extent of PMO-induced Inhibition of Spindle Cell Formation / Phenotype Inhibition (inhibition of spindle cell formation): gene-specific PMO antisense. From the text: Antisense Gene Silencing using PMOs. […] Silencing of such genes precluded progression into the transformed phenotype when silencing occurred prior to transformation, or induced reversion to the normal state when silencing occurred after induction of the transformed state (see TABLE 2 below).
(§1) Introduction of antisense PMO into KSHV-infected DMVEC. Antisense PMO molecules, for delivery purposes, are typically converted to a paired duplex together with a partially complementary cDNA oligonucleotide in the weakly basic delivery reagent ethoxylated polyethylenimine (EPEI) (Summerton, supra). The anionic complex binds to the cell surface, is taken up by endocytosis and eventually released into the cytosol. A protocol for optimum uptake of antisense PMO in immortalized DMVEC was developed using a modification of the EPEI method. Briefly, uninfected, immortalized DMVECs were incubated for 3 hours at 37° C. with 0.6 nmol/well FITC-PMO complexed with EPEI according to the manufacturer's instructions (Genetools, LLC, One Summerton Way, Philomath, OR 97370) (e.g., 1.25 n Mol oligomer with 2.5 μl EPEI reagent per 35 mm dish, allowing for sufficient antisense uptake without non-specific EPEI-induced toxicity). The PMOs were labeled with FITC to allow for monitoring of loading efficiency by fluorescence microscopy.
(§2) Specifically, DMVEC were infected with KSHV, plated in 35 mm dishes and allowed to grow to about 90% confluence. For treatment, KSHV-infected cells were treated with the anti-c-Kit PMO-antisense oligomer-EPEI delivery reagent complex and incubated for 3 hours at 37° C. in serum-free medium to allow for oligomer uptake. A titration experiment testing a range of different oligomer/EPEI volumes was used to determine that loading 1.25 nmol oligomer with 2.5 μl EPEI reagent per 35 mm dish allowed efficient antisense uptake without non-specific EPEI-induced toxicity. Control (mock-treated) DMVEC cultures were loaded with EPEI reagent and sterile water or sterile water alone. Upon removal of the oligomer-EPEI solution, cell monolayers were rinsed in serum-free medium fed with complete medium and examined daily for one week by phase microscopy for evidence of phenotypic change.

In data set [4] the test system is KSHV-infected DMVEC. Nature of the data set: XTT proliferation assay after PMO loading. Format: cell-based, human. The note with it: PMO antisense silencing. How it is done:
Proliferation assays, and loading of cells with PMOs. Proliferation of KSHV-infected DMVEC was quantified using an XTT (2,3-bis-(2-methoxy-4-nitro-5-sulfophenyl)-2H-tetrazolium-5-carboxanilide, disodium salt)-based assay. KSHV-infected cells were added to Primaria 96-well trays (Becton Dickinson) at 1×10^4 or 5×10^4 cells/well. XTT (Roche, Molecular Biochemicals, Indianapolis, Ind.) was added 48 hours later according to the manufacturer's instructions. Absorbance was read after 4 to 6 hours on a microplate reader.
Briefly, cells were plated in 96-well trays at a density approaching confluence (5×10^4 cells per well) in 100 μl of complete medium. PMOs were loaded the following day in a total of 100 μl (0.5 μl PMO, 0.5 μl EPEI, 49 μl H2O and 50 μl serum free medium) with reagent mixing as described by the manufacturer (GeneTools). Controls included a FITC PMO control oligonucleotide, EPEI only or H2O only. Each variable was performed in quadruplicate. Fresh complete medium was replaced 4 hours after loading. Cells were cultured for 4 days to allow for multi-layered cell growth post-confluence in the absence of any growth inhibition. XTT was added on day 4 of culture and the a bsorbance read 4 hrs later on a microplate reader. Cell proliferation (growth) values are given as percentage inhibition values, relative to cells without PMO, which are adjusted to 100%.

The subject of data set [5] is KSHV-infected DMVEC. The data set can be described thus: Focus formation / contact inhibition by phase microscopy after c-Kit PMO loading. Format: cell-based, human. As to conditions: 1.25 nmol PMO and 2.5 μl EPEI per 35 mm dish, one week post-loading. How it is done:
Proof of principal for target validation; silencing of c-Kit gene expression.
as §2

For the next data set, the system named is immortalized DMVEC. Nature of the data set: Uptake and persistence of FITC-labeled PMO by fluorescence microscopy. Type of data set: cell-based, human. As to conditions: FITC-labeled PMO with EPEI, at 3 hours.
From the text: as §1
Cellular distribution of introduced FITC-labeled POM antisense molecules. […] Specifically, the c Kit antisense PMO molecules were initially concentrated in intracellular vesicles (endosomes) at 3 hours in about 70% of the cells, and distributed within the cytoplasm at 66 hours.

The subject of data set [6] is KSHV-infected DMVEC. The data set can be described thus: Inhibition of KSHV-induced spindle cell formation by PMO antisense gene silencing. Format: cell-based, human.

`Cc1ccc(NC(=O)c2ccc(CN3CCN(C)CC3)cc2)cc1Nc1nccc(-c2cccnc2)n1` [STI 571]: the “nonspecific cytotoxicity (cell viability controls)” value with KSHV-infected DMVEC [1] is recorded as “not due to nonspecific cytotoxicity”. For the same molecule, the “proliferative response of KSHV-infected DMVEC to exogenous SCF” value in the data set on KSHV-infected DMVEC [1] (exogenous SCF) was “inhibited”. Further, the “phenotype after removal of the compound” value in the data set with KSHV-infected DMVEC [2] (removal of STI 571, even after exposure to a 10 μM dose) is recorded as “regeneration of the transformed phenotype”. In the data set with KSHV-infected DMVEC [2] (treatment to inhibit endogenous c-Kit tyrosine kinase activity), the focus formation entry is listed as “focus formation is inhibited”.
As for “AGCATGTCACGCACAGTGGCCTCAT (all phosphorodiamidate morpholino (PMO)) [ANGPTL2]”, in the data set on KSHV-infected DMVEC [3], the “effect on KSHV-induced spindle cell formation / phenotypic inhibition (in words)” value is “intermediate inhibitory effects”, the “Extent of PMO-induced Inhibition of Spindle Cell Formation” value is “intermediate” and the “Phenotype Inhibition (inhibition of spindle cell formation)” value (“Phenotype Inhibition” for short) is “Intermediate”.
On the same counts, the results for “AGCTCGTGCTCTGCACACTCTGCAT (all phosphorodiamidate morpholino (PMO)) [NOV]” are “fully reversed spindle cell formation”, “full” and “Full”.
In the case of “AGCTTCATGTTGGAGGTGTTCG (all phosphorodiamidate morpholino (PMO)) [IFACTOR]”, in the data set on KSHV-infected DMVEC [3], the “effect on KSHV-induced spindle cell formation / phenotypic inhibition (in words)” value is “little or no affect on KSHV-induced spindle cell formation”, the “Extent of PMO-induced Inhibition of Spindle Cell Formation” value is “none” and the “Phenotype Inhibition” value was “None”. In addition, in the data set on KSHV-infected DMVEC [4], the “inhibition of KSHV-induced cellular proliferation (in words)” value is given as “relatively little or no significant inhibition”.
Regarding “CGCCTCTCATCGCGGTAGCTGCG (all phosphorodiamidate morpholino (PMO); further chemistry not fully specified) [KIT]”, in the data set with KSHV-infected DMVEC [3], the “effect on KSHV-induced spindle cell formation / phenotypic inhibition (in words)” value is listed as “fully reversed spindle cell formation”, the “Extent of PMO-induced Inhibition of Spindle Cell Formation” value is reported as “full” and the “Phenotype Inhibition” value is recorded as “Full”. Besides, in the data set with KSHV-infected DMVEC [4], the “inhibition of KSHV-induced cellular proliferation (in words)” value is reported as “substantial inhibition of KSHV-induced cellular proliferation”. In the data set with KSHV-infected DMVEC [5] (listed as c-Kit antisense PMO oligomer), the “foci formation / contact-inhibited growth” value is “did not develop foci; also recorded: did not progress to spindle cell and foci formation”. In addition, the “foci formation / contact-inhibited growth” value in the data set with KSHV-infected DMVEC [5] (listed as c-Kit-specific antisense PMO oligonucleotides) is listed as “did not develop foci”. The “cells with PMO concentrated in intracellular vesicles (uptake)” value in the data set on immortalized DMVEC is on record as “about 70%”.
Take “GAAGAGATGCAGATCCATCGTTCTG (all phosphorodiamidate morpholino (PMO)) [RDC-1]”: in the data set with KSHV-infected DMVEC [3], the “effect on KSHV-induced spindle cell formation / phenotypic inhibition (in words)” value is “fully reversed spindle cell formation”, the “Extent of PMO-induced Inhibition of Spindle Cell Formation” value is on record as “full” and the “Phenotype Inhibition” value is given as “Full”. For the same molecule, the “inhibition of KSHV-induced cellular proliferation (in words)” value with KSHV-infected DMVEC [4] is reported as “substantial inhibition of KSHV-induced cellular proliferation”. Moreover, the “effect on KSHV-induced spindle cell formation / phenotypic inhibition (in words)” value in the data set with KSHV-infected DMVEC [6] (listed as RDC-1-specific PMO) is “full phenotypic inhibition”.
With “GCCGAGGACATTGGGGAGGGAGGCG (all phosphorodiamidate morpholino (PMO)) [LMO2]”, in the data set on KSHV-infected DMVEC [3], the “effect on KSHV-induced spindle cell formation / phenotypic inhibition (in words)” value was “little or no affect on KSHV-induced spindle cell formation” and the “Extent of PMO-induced Inhibition of Spindle Cell Formation” value is listed as “none”.
In the case of “GGAGCACGGTCCAGGCGAAGCGCAT (all phosphorodiamidate morpholino (PMO)) [LOX]”, in the data set with KSHV-infected DMVEC [3], the “effect on KSHV-induced spindle cell formation / phenotypic inhibition (in words)” value is listed as “fully reversed spindle cell formation”, the “Extent of PMO-induced Inhibition of Spindle Cell Formation” value was “full” and the “Phenotype Inhibition” value is reported as “Full”.
With “GGCAGCCCACTCTCTCGGCAGCATG (all phosphorodiamidate morpholino (PMO)) [IGFBP2]”, in the data set on KSHV-infected DMVEC [3], the “effect on KSHV-induced spindle cell formation / phenotypic inhibition (in words)” value is listed as “fully reversed spindle cell formation”, the “Extent of PMO-induced Inhibition of Spindle Cell Formation” value is on record as “full” and the “Phenotype Inhibition” value is given as “Full”. Also, the “inhibition of KSHV-induced cellular proliferation (in words)” value with KSHV-infected DMVEC [4] is recorded as “substantial inhibition of KSHV-induced cellular proliferation”.
In the case of GGCTCCATCTTGGGCTCTGGGCTCC [FLJ14103], in the data set on KSHV-infected DMVEC [3], the “effect on KSHV-induced spindle cell formation / phenotypic inhibition (in words)” value is reported as “fully reversed spindle cell formation” and the “Extent of PMO-induced Inhibition of Spindle Cell Formation” value is on record as “full”.
“GGGTCTCCTCGGATCAGGCGCG (all phosphorodiamidate morpholino (PMO)) [INSR]”: in the data set on KSHV-infected DMVEC [3], the “effect on KSHV-induced spindle cell formation / phenotypic inhibition (in words)” value is recorded as “intermediate inhibitory effects”, the “Extent of PMO-induced Inhibition of Spindle Cell Formation” value was “intermediate” and the “Phenotype Inhibition” value is “Intermediate”. Besides, in the data set on KSHV-infected DMVEC [4], the “inhibition of KSHV-induced cellular proliferation (in words)” value is listed as “substantial inhibition of KSHV-induced cellular proliferation”.
For the molecule “GTCAGTTTACTCATGTCATCTATTG (all phosphorodiamidate morpholino (PMO)) [KIAA0367]”, in the data set on KSHV-infected DMVEC [3], the “effect on KSHV-induced spindle cell formation / phenotypic inhibition (in words)” value is “intermediate inhibitory effects”, the “Extent of PMO-induced Inhibition of Spindle Cell Formation” value was “intermediate” and the “Phenotype Inhibition” value was “Intermediate”. Further, in the data set on KSHV-infected DMVEC [4], the “inhibition of KSHV-induced cellular proliferation (in words)” value is reported as “substantial inhibition of KSHV-induced cellular proliferation”. For the same molecule, the “effect on KSHV-induced spindle cell formation / phenotypic inhibition (in words)” value in the data set with KSHV-infected DMVEC [6] (listed as KIAA0367-specific PMO) is listed as “intermediate phenotypic inhibition”.
Take Osteopontin: in the data set with KSHV-infected DMVEC [3], the “Phenotype Inhibition” value is “None”. In the data set with KSHV-infected DMVEC [4], the “inhibition of KSHV-induced cellular proliferation (in words)” value is “relatively little or no significant inhibition”.
With “TGAATAAGCAACAATGTAGCTTCAT (all phosphorodiamidate morpholino (PMO)) [MFAP3]”, in the data set with KSHV-infected DMVEC [3], the “effect on KSHV-induced spindle cell formation / phenotypic inhibition (in words)” value is listed as “little or no affect on KSHV-induced spindle cell formation”, the “Extent of PMO-induced Inhibition of Spindle Cell Formation” value was “none” and the “Phenotype Inhibition” value is on record as “None”. For the same molecule, in the data set with KSHV-infected DMVEC [4], the “inhibition of KSHV-induced cellular proliferation (in words)” value was “relatively little or no significant inhibition”. For the same molecule, in the data set with KSHV-infected DMVEC [6] (listed as MFAP-specific PMO), the “effect on KSHV-induced spindle cell formation / phenotypic inhibition (in words)” value is “no phenotypic inhibition”.
Turning to “TTAACTCCCATCCTACGTTTAGTCA (all phosphorodiamidate morpholino (PMO)) [Neuritin]”, in the data set with KSHV-infected DMVEC [3], the “effect on KSHV-induced spindle cell formation / phenotypic inhibition (in words)” value is “fully reversed spindle cell formation”, the “Extent of PMO-induced Inhibition of Spindle Cell Formation” value is reported as “full” and the “Phenotype Inhibition” value is recorded as “Full”. In addition, the “inhibition of KSHV-induced cellular proliferation (in words)” value in the data set on KSHV-infected DMVEC [4] is reported as “substantial inhibition of KSHV-induced cellular proliferation”.

These data come from US20060275769A1 (priority 2003, published 2006).
